Here are results for five molecules from ChEMBL document CHEMBL1201862, “PubChem BioAssay data set” (2004).

Among the test systems are A498; A549; BT-549; COLO 205; DMS-273; IGROV-1; LOX IMVI; MDA-MB-231; MDA-N; Malme-3M; NCI-H226; PC-3; RPMI-8226; RXF 393; SF-295; SK-MEL-28; SK-MEL-2; SK-MEL-5; SNB-75; T47D.
Holding throughout (test): growth of human tumour cells (NCI), 48 h

Structures are written as SMILES. Several values for one entry are separate records, joined by “and”; a condition that tells them apart may be missing. Identical values can stand only once.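 Cultured in 96-well plates, cells were exposed to test compound for 48 hours across five concentrations. The concentration for 50% growth inhibition is given as GI50.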 Activity calls are given as the source filed them. No stated cut-off is given here; in the data, active = GI50 up to about 1.1 µM and inactive = higher.

`CCCCCCCCOC(=O)c1cc([N+](=O)[O-])c(Sc2[nH]cnc3ncnc2-3)c([N+](=O)[O-])c1`: the GI50 with A498 was 17 µM (inactive); in the test with A549 it was 7.98 µM (inactive); with BT-549, 2.95 µM (inactive); in the test on COLO 205 it was 1.6 µM (inactive); in the test with DMS-273 it was 425 nM (active); with IGROV-1 it was 4.07 µM (inactive). Moreover, the GI50 is 0.296 µM (active) with LOX IMVI; 7.19 µM (inactive) in the test with MDA-MB-231; 1.35 µM (inactive) in the test with MDA-N; 3.61 µM (inactive) in the test on Malme-3M; 2.03 µM (inactive) in the test on NCI-H226; 3.21 µM (inactive) in the test on PC-3. Besides, the GI50 was 0.512 µM (active) in the test on RPMI-8226; 7.69 µM (inactive) with RXF 393; 3.12 µM (inactive) in the test with SF-295; 19.1 µM (inactive) in the test with SK-MEL-28; 4.53 µM (inactive) in the test on SK-MEL-2; 3.57 µM (inactive) in the test on SK-MEL-5. Besides, the GI50 in the test on SNB-75 was 2.47 µM (inactive); in the test with T47D, 0.465 µM (active).
Take `COc1cccc2c1C(=O)c1c(O)c3c(c(O)c1C2=O)C[C@@](O)(C(=O)CO)C[C@@H]3OC1CC(N(C)C)C(O)C(C)O1` (stereo partly specified): the GI50 in the test on A498 was < 0.0116 µM (active); in the test on A549, < 0.01 µM (active); in the test on BT-549, 0.0537 µM (active); in the test with COLO 205, < 0.01 µM (active); in the test on DMS-273, < 10.6 nM (active); in the test on IGROV-1 it was < 0.0104 µM (active). Moreover, the GI50 was < 0.01 µM (active) with LOX IMVI; 0.0528 µM (active) in the test with MDA-MB-231; < 0.01 µM (active) in the test with MDA-N; < 0.0142 µM (active) in the test with Malme-3M; < 0.0149 µM (active) in the test with NCI-H226; < 0.01 µM (active) with PC-3. In addition, the GI50 with RPMI-8226 is < 0.0175 µM (active); in the test on RXF 393 it was 0.0138 µM (active); in the test on SF-295 it was < 0.01 µM (active); in the test on SK-MEL-28, 0.0227 µM (active); with SK-MEL-2, < 0.0212 µM (active); in the test on SK-MEL-5 it was 0.0129 µM (active). Further, the values for the GI50 in the test with SNB-75 and in the test with T47D were 0.0155 µM (active) and < 0.01 µM (active), respectively.
Consider `COC(=O)[C@@H]1[C@H](O)[C@H](C)[C@H](O)[C@@](C)(O)/C=C\C=C(\C)C(=O)Nc2c(C)c(OC(C)=O)c3c(c2O)C(=O)C(C)=C2OCOC(=C23)/C(C)=C/[C@@](C)(O)[C@H](O)[C@@H](C)[C@H]1OC(C)=O`, for which the GI50 in the test on A498 was > 66.8 µM (inactive); in the test on A549, 43.3 µM (inactive); in the test on COLO 205, 72.9 µM (inactive) and 14.6 µM (inactive); with DMS-273, > 100 µM (inactive) and 60 µM (inactive); in the test with IGROV-1, > 100 µM (inactive) and 53 µM (inactive); with LOX IMVI, 26.8 µM (inactive). In addition, the GI50 with Malme-3M is 31.3 µM (inactive); in the test with NCI-H226, > 100 µM (inactive) and 94.2 µM (inactive); in the test on PC-3, > 66.8 µM (inactive); with RPMI-8226 it was 31.8 µM (inactive); with RXF 393 it was 62.7 µM (inactive); with SF-295 it was 88.5 µM (inactive). The GI50 in the test on SK-MEL-28 is > 100 µM (inactive); with SK-MEL-2, 37.2 µM (inactive); with SK-MEL-5, 24.5 µM (inactive); in the test with SNB-75, > 66.8 µM (inactive).
In the case of `CC(=O)OC1C/C(C)=C/CCC(C)/C=C/C2(C)CCC(C(C)(C)O)C12` (stereo unspecified), the GI50 with A498 was > 100 µM (inactive); in the test on A549, 53 µM (inactive); with COLO 205 it was 39.8 µM (inactive); in the test on DMS-273, 44200 nM (inactive); in the test with IGROV-1, 36.8 µM (inactive); with LOX IMVI, 39.1 µM (inactive). For the same molecule, the GI50 with Malme-3M was 63 µM (inactive); in the test on NCI-H226, 45.1 µM (inactive); in the test on RPMI-8226 it was 23.2 µM (inactive); with RXF 393 it was 14 µM (inactive); with SF-295, 80.7 µM (inactive); with SK-MEL-28, 72.1 µM (inactive). The GI50 in the test with SK-MEL-2 was 34.4 µM (inactive); in the test on SK-MEL-5 it was 47.6 µM (inactive); in the test with SNB-75 it was 40.7 µM (inactive).
For `O=C1C=Cc2c(-c3ccccc3)oc3cccc1c23`, the GI50 was 15.4 µM (inactive) in the test on A498; 6.98 µM (inactive) with A549; 15.8 µM (inactive) in the test with COLO 205; 5980 nM (inactive) in the test with DMS-273; 15.8 µM (inactive) with IGROV-1; 11.2 µM (inactive) in the test on LOX IMVI. Besides, the GI50 with Malme-3M was 37 µM (inactive); with NCI-H226 it was 11.3 µM (inactive); in the test with RPMI-8226 it was 3.97 µM (inactive); in the test on RXF 393, 24.1 µM (inactive); in the test on SF-295, 25.7 µM (inactive); in the test with SK-MEL-28, 56.9 µM (inactive). Moreover, the results for the GI50 with SK-MEL-2, in the test with SK-MEL-5 and in the test with SNB-75 were 67.1 µM (inactive), 20.5 µM (inactive) and 4.33 µM (inactive), respectively.
